Test results taken from publication PMC9883540, “Study on pharmacokinetic interactions between SHR2554 and itraconazole in healthy subjects: A single‐center, open‐label phase I trial” (Cancer Medicine, 2022).
Several values for one entry are separate records, joined by “and”; a condition that tells them apart may be missing. Equal values may be shown once. Entries after “also recorded” stand apart in the source; their conditions may differ. Read-outs that look alike come from different tables or passages of the source.

How the values were obtained:
[1] = cited from earlier work
[2] = in vivo
Method: Eighteen volunteers were recruited for the study. The subjects were orally administered SHR2554 at a 50 mg daily dose (Day 1); then, they were orally administered itraconazole 200 mg Quaque Die (QD) for 4 days (Days 4–7) followed by co‐administration of itraconazole 200 mg and SHR2554 50 mg (Day 8). They took itraconazole 200 mg QD for 4 days (Days 9–12). All subjects were fasted for at least 10 h, and they ate a standard meal in 30 min before drug administration. Water was forbidden within 1 h after drug administration, and the subjects were fasted for at least 4 h after drug administration.
Safety evaluation included adverse events, laboratory tests, physical examination, measurement of vital signs, 12‐lead electrocardiogram, etc. All abnormal and clinically significant laboratory results were followed up until they returned to normal.

[3] = Pharmacokinetic interaction study of itraconazole on SHR2554, plasma SHR2554 by HPLC-MS/MS; type: in vivo, human; settings: for AUC0–t / AUC0–∞ / C max: plasma SHR2554, mean ± SD
Method: Eighteen volunteers were recruited for the study. […] The samples of venous blood (4 ml) were collected into heparinized Vacutainer™ tubes and mixed gently. […] Thereafter, plasma was separated by centrifugation (2000g at 4°C for 10 min) within 1 h of sample collection and then stored at −80°C before analyses. The plasma concentrations of SHR2554 were determined by a validated method with sensitivity and specificity using high‐performance liquid chromatography–tandem mass spectrometry (HPLC‐MS/MS) by Shanghai InnoStar Bio‐tech Co. Ltd. Blood samples were pretreated by protein precipitation with acetonitrile. Biological sample analysis was performed using SHR149633 (free base) as an internal standard. Separation of SHR2554 was carried out using a […] ZORBAX Extend‐C18 column (2.1 × 50 mm, 1.8 μm), and analytes were detected on an AB SCIEX QTRAP 5500 mass spectrometer. The assay was linear over the range of 1–2000 ng·ml^−1. […] Plasma samples are stable under various conditions. The PK parameters were evaluated using Phoenix WinNonlin v8.1. Statistical analysis was performed with SAS v9.2 (SAS Institute). Descriptive statistics and tabulation of PK parameters for analytes were performed, and mean concentration‐time curves were plotted. After natural log transformation, the PK parameters were fitted with a mixed‐effects model. In the mixed‐effects model analysis, medication (itraconazole combined with SHR2554 or SHR2554 alone) was used as a fixed effect, and the participants in the model fitting were used as random effects. The corrected least‐square mean difference and 90% confidence interval (CI) between the administration of a single drug (SHR2554) alone and a combination drug (co‐administration of SHR2554 and itraconazole) were obtained. The corrected least‐square mean difference and its 90% confidence interval were converted to the adjusted geometric mean ratios (GMRs) (co‐administration of SHR2554 and itraconazole/SHR2554 alone) and its 90% confidence interval by taking the antilog.

[4] = cited from earlier work; remark: listed apart in the source
[5] = test system: CYP3A4; settings: sponsor's preclinical studies, no method or reference given; cited from earlier work
[6] = test system: Caco‐2 cell model; set-up: method as in PMID 34498807; settings: preclinical results; cited from earlier work
[7] = test system: CYP3A4; settings: preclinical test, no method or reference given; cited from earlier work
[8] = test system: CYP3A4; settings: preclinical test, no method or reference given; cited from earlier work; remark: listed apart in the source
[9] = test system: wild‐type and mutant EZH2 enzymes; settings: no method or reference given; cited from earlier work
[10] = test system: cell H3K27Me3 and cell proliferation; set-up: method as in PMID 34503063; settings: cited from earlier work
[11] = test system: tumor; settings: same dose; no reference given; cited from earlier work
[12] = cited from earlier work; remark: listed apart in the source
[13] = SHR2554 50 mg co-administered with itraconazole 200 mg (Day 8), fed, mean ± SD
[14] = SHR2554 50 mg co-administered with itraconazole 200 mg (Day 8), fed
[15] = SHR2554 50 mg single oral dose alone (Day 1), fed, mean ± SD
[16] = SHR2554 50 mg single oral dose alone (Day 1), fed
[17] = SHR2554 50 mg, itraconazole 200 mg, 90% CI in brackets
[18] = completed or ongoing clinical trials of SHR2554, reference not given

CC[C@H](C)n1cc(C)c2c(C(=O)NCc3c(C)cc(C)[nH]c3=O)cc(-c3ccc(N4CCNCC4)nc3)cc21 [GSK2816126, reference compound]
most common adverse reactions in clinical trial [1]: fatigue and nausea

CCC(C)n1ncn(-c2ccc(N3CCN(c4ccc(OCC5COC(Cn6cncn6)(c6ccc(Cl)cc6Cl)O5)cc4)CC3)cc2)c1=O (stereo not shown) [Itraconazole, itraconazole]
Itraconazole‐related TEAEs, Cases ([2]; human): 2 | Itraconazole‐related TEAEs, Number of subjects (%) ([2]; human): 2 (11.1) | SHR2554‐related TEAEs, Cases ([2]; human): 1 | SHR2554‐related TEAEs, Number of subjects (%) ([2]; human): 1 (5.6) | TEAEs, Cases ([2]; human): 2 | TEAEs, Number of subjects (%) ([2]; human): 2 (11.1) | TEAEs, Total ([2]; human): 2 (11.1) | TEAEs: All kinds of inspection ([2]; human): 1 (5.6) | TEAEs: Appendicitis ([2]; human): 0 | TEAEs: Blood in the urine ([2]; human): 0 | TEAEs: Cardiac organ diseases ([2]; human): 0 | TEAEs: Hematuria ([2]; human): 0 | TEAEs: High blood uric acid ([2]; human): 0 | TEAEs: Increased blood bilirubin ([2]; human): 0 | TEAEs: Increased blood triglyceride ([2]; human): 1 (5.6) | TEAEs: Increased heart rate ([2]; human): 0 | TEAEs: Infectious diseases ([2]; human): 0 | TEAEs: Kidney and urinary system diseases ([2]; human): 0 | TEAEs: Positive bacterial tests ([2]; human): 0 | TEAEs: Positive urine leukocyte ([2]; human): 0 | TEAEs: Rash ([2]; human): 1 (5.6) | TEAEs: Skin and subcutaneous tissue diseases ([2]; human): 1 (5.6) | TEAEs: Spermaturia ([2]; human): 0 | TEAEs: Supraventricular extrasystole contraction ([2]; human): 0 | drug-related TEAEs, Cases ([2]; human): 6 | drug-related TEAEs, Cases [2]: six

CCc1c(N(CC)C2CCOCC2)cc2oc(CN3CCCCC3)cc2c1C(=O)NCc1c(C)cc(C)[nH]c1=O [SHR2554]
CL/F (apparent clearance) [3, 13]: 98.4 ± 46.96 L/h | t 1/2 (elimination half-life) [3, 13]: 8.678 ± 3.6031 h | AUC0–t [3, 14]: 612.13 ± 315.720 ng·h/mL | AUC0–∞ [3, 14]: 641.53 ± 319.538 ng·h/mL | C max ([3]; SHR2554 50 mg co-administered with itraconazole 200 mg (Day 8; itraconazole 200 mg QD Days 4-12), fed): 70.538 ± 25.0219 ng/mL | plasma concentration of all subjects at 96 h ([3]; SHR2554 50 mg combined with itraconazole 200 mg): below LLOQ | AUC_%Extrap (percentage of AUCINF_pred due to extrapolation from Tlast to infinity) [3, 15]: 14.498 ± 2.9731 (20.51) [N = 8] % | CL/F (apparent clearance) [3, 15]: 2127.7 ± 1592.02 L·h^−1 and 2127.7 ± 1592.02 (74.82) [N = 18] L·h^−1 | T max [3, 15]: 1.472 ± 0.6286 (0.50, 3.00) [N = 18] h | V z /F [3, 15]: 8439.2 ± 3779.31 (44.78) [N = 18] L | t 1/2 (elimination half-life) [3, 15]: 3.287 ± 1.0636 (1.76, 5.94) [N = 18] h | AUC0–t [3, 16]: 28.70 ± 18.913 (65.90) [N = 18] h·ng·ml^−1 | AUC0–∞ [3, 16]: 50.99 ± 19.358 (37.97) [N = 8] h·ng·ml^−1 | C max [3, 16]: 10.197 ± 7.0262 (68.91) [N = 18] ng·ml^−1 | adjusted geometric mean ratio of SHR2554 AUC0–t (co-administration with itraconazole / SHR2554 alone) [3, 17]: 23.75 fold | adjusted geometric mean ratio of SHR2554 AUC0–∞ (co-administration with itraconazole / SHR2554 alone) [3, 17]: 12.47 fold | adjusted geometric mean ratio of SHR2554 C max (co-administration with itraconazole / SHR2554 alone) [3, 17]: 7.73 fold | plasma concentration of all subjects at 24 h after administration ([3]; single-dose phase of SHR2554 50 mg, assay range 1–2000 ng·ml^−1): below lower limit of quantitation | Itraconazole‐related TEAEs, Cases [2]: 2 | Itraconazole‐related TEAEs, Number of subjects (%) [2]: 2 (11.1) | SHR2554‐related TEAEs, Cases [2]: 12 | SHR2554‐related TEAEs, Number of subjects (%) [2]: 9 (50.0) | TEAEs, Cases [2]: 13 | TEAEs, Number of subjects (%) [2]: 9 (50.0) | TEAEs, Total [2]: 9 (50.0) | TEAEs: All kinds of inspection [2]: 8 (44.4) | TEAEs: Appendicitis [2]: 0 | TEAEs: Blood in the urine [2]: 2 (11.1) | TEAEs: Cardiac organ diseases [2]: 1 (5.6) | TEAEs: Hematuria [2]: 1 (5.6) | TEAEs: High blood uric acid [2]: 1 (5.6) | TEAEs: Increased blood bilirubin [2]: 0 | TEAEs: Increased blood triglyceride [2]: 4 (22.2) | TEAEs: Increased heart rate [2]: 1 (5.6) | TEAEs: Infectious diseases [2]: 0 | TEAEs: Kidney and urinary system diseases [2]: 2 (11.1) | TEAEs: Positive bacterial tests [2]: 2 (11.1) | TEAEs: Positive urine leukocyte [2]: 0 | TEAEs: Rash [2]: 0 | TEAEs: Skin and subcutaneous tissue diseases [2]: 0 | TEAEs: Spermaturia [2]: 1 (5.6) | TEAEs: Supraventricular extrasystole contraction [2]: 1 (5.6) | drug-related TEAEs, Cases [2]: 16 | subjects with grade four neutropenia reported as SAE/DLT ([4]; 350 mg group, ref NCT03603951): one | subjects with grade three and four decreased platelet counts reported as SAE/DLT ([4]; 400 mg BID group, as of January 3, 2020, ref NCT03603951): two | safety at doses below 300 mg BID (including 300 mg BID) ([4]; no drug-related SAE or DLT, previous clinical studies, ref NCT03603951): good and good safety profile | recommended phase II dose ([4]; previous clinical studies, ref NCT03603951): 350 mg BID | increase of exposure relative to increase of dose ([4]; range of 50–400 mg BID, ref NCT03603951): higher than that of the administered dose | subjects with grade two anemia reported as SAE ([4]; ref NCT03741712): one | enzyme catalysing the oxidative metabolism [5]: mainly metabolized by CYP3A4; also recorded: mainly catalyzed by CYP3A4 | permeability [6]: low permeability | inhibitory effect on CYP3A4 [7]: weak inhibitory effect | induction of the expression of the CYP3A4 enzyme [8]: only high concentration SHR2554 can induce | inhibition of the activity of wild-type and mutant EZH2 enzymes [9]: potently inhibits | IC50 for inhibiting cell H3K27Me3 and cell proliferation, relative to EPZ-6438 [10]: comparable or even better | anti-tumor activity in vitro, relative to EPZ-6438 (tazemetostat) [10]: comparable | serum and tumor systemic exposure as fraction of that of EPZ-6438 [11]: about one‐fifth | tumor inhibition rate relative to the reference compound EPZ-6438 [11]: higher | electrocardiogram finding in some subjects ([1]; completed or ongoing clinical trials of SHR2554, clinically controllable, no reference given): prolongation of the QT interval of the electrocardiogram | most common drug-related TEAEs in hematology [1, 18]: decreased white blood cell count, thrombocytopenia, neutropenia, and hyperlipidemia, increased aspartate aminotransferase level, hypertension, elevated alanine aminotransferase, anemia | non-hematological common drug-related TEAEs [1, 18]: nausea and fatigue

CC[C@H](C)C(=O)O[C@H]1C[C@@H](C)C=C2C=C[C@H](C)[C@H](CC[C@@H](O)C[C@@H](O)CC(=O)O)[C@H]21 [lovastatin (acid)]
change in the AUC with itraconazole ([12]; itraconazole dose 100 mg): 15 fold | change in the AUC with itraconazole ([12]; itraconazole dose 200 mg): 20 fold

CCN(c1cc(-c2ccc(CN3CCOCC3)cc2)cc(C(=O)NCc2c(C)cc(C)[nH]c2=O)c1C)C1CCOCC1 [tazemetostat, reference compound]
adverse effects in clinical trial [1]: thrombocytopenia, neutropenia, and anemia
